Reference: the supplement of paper PMC11208160

Assay: recombinant UMI read abundance after kanamycin selection (control-corrected) (log10(CPM+1)); higher = more efficient recombination; extreme values may be limits of the assay; sequences stand for … in AGTGCAGAGAAAATCGGCCAGTTTTCTCTGCCTGCAGTCCGCATGCCGTGGGACCCCTTGGGTTCTAACCTGTTGCCTAGATTTATGCAGCGGACTGCCTTTCTCCCAAAGTGATAAACCGG…AGGTTGGTTTCACT; site = the 11-nt donor
Outline: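 Sequenced counts of recombinant UMIs were turned into CPM, averaged across replicates and scaled with control-derived factors. The reported figure is log10(CPM+1). Those UMIs, each 12 nt long, tagged donor and donor-binding-loop pairs on a plasmid with a promoterless kanamycin gene, screened as a pool in Escherichia coli with IPTG (0.07 mM) plus kanamycin or without selection.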
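Note: IS621 bridge recombinase in Escherichia coli cells against a fixed T5 target plasmid.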

| Sequence | recombinant UMI read abundance (log10) |
| --- | --- |
| CGAGCGACATGGACCGGTTTTCCCGGTAATCCGTATTTGTT (site CGAGCGACTAA) | 1.49 |
| CGAGCGACATGGACCGGTTTTCCCGGTAATCCGTATTTGTT (site CGATCGACTAA) | 0.0192 |
| CGAGCGCCATGGACCGGTTTTCCCGGTAATCCGTATTTGTG (site CAAGCGCCTCA) | 0.0595 |
| CGAGCGCCATGGACCGGTTTTCCCGGTAATCCGTATTTGTG (site CCAGCGCCTCA) | 0.0345 |
| CGAGCGCCATGGACCGGTTTTCCCGGTAATCCGTATTTGTG (site CGAGCGCCTCA) | 0.219 |
| CGAGCGCCATGGACCGGTTTTCCCGGTAATCCGTATTTGTG (site CTAGCGCCTCA) | 0.0326 |
| CGAGGAACATGGACCGGTTTTCCCGGTAATCCGTATTTGGG (site CGAGGAACTCC) | 1.53 |
| CGAGGAACATGGACCGGTTTTCCCGGTAATCCGTATTTGGG (site CGAGGACCTCC) | 0.0124 |
| CGAGGAACATGGACCGGTTTTCCCGGTAATCCGTATTTGGG (site CGAGGAGCTCC) | 0.376 |
| CGAGGAACATGGACCGGTTTTCCCGGTAATCCGTATTTGGG (site CGAGGATCTCC) | 1.59 |
| CGAGGAACATGGACCGGTTTTCCCGGTAATCCGTATTTGTT (site CGAGGAACTAA) | 2.78 |
| CGAGGAACATGGACCGGTTTTCCCGGTAATCCGTATTTGTT (site CGCGGAACTAA) | 0.0367 |
| CGAGGAACATGGACCGGTTTTCCCGGTAATCCGTATTTGTT (site CGGGGAACTAA) | 0.474 |
| CGAGGAACATGGACCGGTTTTCCCGGTAATCCGTATTTGTT (site CGTGGAACTAA) | 1.82 |
| CGAGGACCATGGACCGGTTTTCCCGGTAATCCGTATTTGGG (site AGAGGACCTCC) | 0.00643 |
| CGAGGACCATGGACCGGTTTTCCCGGTAATCCGTATTTGGG (site CAAGGACCTCC) | 0.019 |
| CGAGGACCATGGACCGGTTTTCCCGGTAATCCGTATTTGGG (site CCAGGACCTCC) | 0.059 |
| CGAGGACCATGGACCGGTTTTCCCGGTAATCCGTATTTGGG (site CGAAGACCTCC) | 0 |
| CGAGGACCATGGACCGGTTTTCCCGGTAATCCGTATTTGGG (site CGACGACCTCC) | 0.00414 |
| CGAGGACCATGGACCGGTTTTCCCGGTAATCCGTATTTGGG (site CGAGAACCTCC) | 0.0154 |
| CGAGGACCATGGACCGGTTTTCCCGGTAATCCGTATTTGGG (site CGAGCACCTCC) | 0 |
| CGAGGACCATGGACCGGTTTTCCCGGTAATCCGTATTTGGG (site CGAGGAACTCC) | 0.0189 |
| CGAGGACCATGGACCGGTTTTCCCGGTAATCCGTATTTGGG (site CGAGGACCTAC) | 0 |
| CGAGGACCATGGACCGGTTTTCCCGGTAATCCGTATTTGGG (site CGAGGACCTCA) | 0.0034 |
| CGAGGACCATGGACCGGTTTTCCCGGTAATCCGTATTTGGG (site CGAGGACCTCC) | 0.0104 |

| Sequence | recombinant UMI read abundance (log10) |
| --- | --- |
| CGAGGACCATGGACCGGTTTTCCCGGTAATCCGTATTTGGG (site CGAGGACCTCG) | 0 |
| CGAGGACCATGGACCGGTTTTCCCGGTAATCCGTATTTGGG (site CGAGGACCTCT) | 0.0267 |
| CGAGGACCATGGACCGGTTTTCCCGGTAATCCGTATTTGGG (site CGAGGACCTGC) | 0 |
| CGAGGACCATGGACCGGTTTTCCCGGTAATCCGTATTTGGG (site CGAGGACCTTC) | 0.00702 |
| CGAGGACCATGGACCGGTTTTCCCGGTAATCCGTATTTGGG (site CGAGGAGCTCC) | 0.00291 |
| CGAGGACCATGGACCGGTTTTCCCGGTAATCCGTATTTGGG (site CGAGGATCTCC) | 0.156 |
| CGAGGACCATGGACCGGTTTTCCCGGTAATCCGTATTTGGG (site CGAGGCCCTCC) | 0.0207 |
| CGAGGACCATGGACCGGTTTTCCCGGTAATCCGTATTTGGG (site CGAGGGCCTCC) | 0.0101 |
| CGAGGACCATGGACCGGTTTTCCCGGTAATCCGTATTTGGG (site CGAGGTCCTCC) | 0.00323 |
| CGAGGACCATGGACCGGTTTTCCCGGTAATCCGTATTTGGG (site CGAGTACCTCC) | 0 |
| CGAGGACCATGGACCGGTTTTCCCGGTAATCCGTATTTGGG (site CGATGACCTCC) | 0.0104 |
| CGAGGACCATGGACCGGTTTTCCCGGTAATCCGTATTTGGG (site CGCGGACCTCC) | 0 |
| CGAGGACCATGGACCGGTTTTCCCGGTAATCCGTATTTGGG (site CGGGGACCTCC) | 0 |
| CGAGGACCATGGACCGGTTTTCCCGGTAATCCGTATTTGGG (site CGTGGACCTCC) | 0.0136 |
| CGAGGACCATGGACCGGTTTTCCCGGTAATCCGTATTTGGG (site CTAGGACCTCC) | 0.00778 |
| CGAGGACCATGGACCGGTTTTCCCGGTAATCCGTATTTGGG (site GGAGGACCTCC) | 0.0223 |
| CGAGGACCATGGACCGGTTTTCCCGGTAATCCGTATTTGGG (site TGAGGACCTCC) | 0.02 |
| CGAGGACCATGGACCGGTTTTCCCGGTAATCCGTATTTGGT (site CGAGGACCTAC) | 0.0053 |
| CGAGGACCATGGACCGGTTTTCCCGGTAATCCGTATTTGGT (site CGAGGACCTCC) | 0.0157 |
| CGAGGACCATGGACCGGTTTTCCCGGTAATCCGTATTTGGT (site CGAGGACCTGC) | 0 |
| CGAGGACCATGGACCGGTTTTCCCGGTAATCCGTATTTGGT (site CGAGGACCTTC) | 0.0098 |
| CGAGGACCATGGACCGGTTTTCCCGGTAATCCGTATTTGTG (site CGAGGACCTCA) | 0.00285 |
| CGAGGACCATGGACCGGTTTTCCCGGTAATCCGTATTTGTG (site CGAGGACCTCC) | 0.0189 |
| CGAGGACCATGGACCGGTTTTCCCGGTAATCCGTATTTGTG (site CGAGGACCTCG) | 0 |
| CGAGGACCATGGACCGGTTTTCCCGGTAATCCGTATTTGTG (site CGAGGACCTCT) | 0.0187 |

| Sequence | recombinant UMI read abundance (log10) |
| --- | --- |
| CGAGGAGCATGGACCGGTTTTCCCGGTAATCCGTATTTGGG (site CGAGGAACTCC) | 0.567 |
| CGAGGAGCATGGACCGGTTTTCCCGGTAATCCGTATTTGGG (site CGAGGACCTCC) | 0.0303 |
| CGAGGAGCATGGACCGGTTTTCCCGGTAATCCGTATTTGGG (site CGAGGAGCTCC) | 0.918 |
| CGAGGAGCATGGACCGGTTTTCCCGGTAATCCGTATTTGGG (site CGAGGATCTCC) | 0.704 |
| CGAGGTCCATGGACCGGTTTTCCCGGTAATCCGTATTTGGG (site CGAGGACCTCC) | 0.0132 |
| CGAGGTCCATGGACCGGTTTTCCCGGTAATCCGTATTTGGG (site CGAGGCCCTCC) | 0.0189 |
| CGAGGTCCATGGACCGGTTTTCCCGGTAATCCGTATTTGGG (site CGAGGGCCTCC) | 0.0131 |
| CGAGGTCCATGGACCGGTTTTCCCGGTAATCCGTATTTGGG (site CGAGGTCCTCC) | 0.0134 |
| CGAGGTGCATGGACCGGTTTTCCCGGTAATCCGTATTTGAT (site CAAGGTGCTAT) | 1.84 |
| CGAGGTGCATGGACCGGTTTTCCCGGTAATCCGTATTTGAT (site CCAGGTGCTAT) | 1.37 |
| CGAGGTGCATGGACCGGTTTTCCCGGTAATCCGTATTTGAT (site CGAGGTGCTAT) | 2.36 |
| CGAGGTGCATGGACCGGTTTTCCCGGTAATCCGTATTTGAT (site CTAGGTGCTAT) | 1.6 |
| CGAGTAGCATGGACCGGTTTTCCCGGTAATCCGTATTTGCC (site CGAGTAGCTGG) | 1.66 |
| CGAGTATCATGGACCGGTTTTCCCGGTAATCCGTATTTGGC (site CGAGTATCTGC) | 3.08 |
| CGAGTATCATGGACCGGTTTTCCCGGTAATCCGTATTTGGC (site CTAGTATCTGT) | 2.29 |
| CGAGTCACATGGACCGGTTTTCCCGGTAATCCGTATTTGGG (site CAAGTCACTCC) | 0.0136 |
| CGAGTCACATGGACCGGTTTTCCCGGTAATCCGTATTTGGG (site CCAGTCACTCC) | 0.0249 |
| CGAGTCACATGGACCGGTTTTCCCGGTAATCCGTATTTGGG (site CGAGTCACTCC) | 0.184 |
| CGAGTCACATGGACCGGTTTTCCCGGTAATCCGTATTTGGG (site CTAGTCACTCC) | 0.00855 |
| CGAGTGGCATGGACCGGTTTTCCCGGTAATCCGTATTTGAG (site CGAGTGGCTCT) | 1.85 |
| CGATAATCATGGACCGGTTTTCCCGGTAATCCGTATTTGGT (site CGATAATCTAC) | 2.74 |
| CGATAATCATGGACCGGTTTTCCCGGTAATCCGTATTTGGT (site CGATCATCTAG) | 0 |
| CGATCATCATGGACCGGTTTTCCCGGTAATCCGTATTTGAC (site CGATCATCTAG) | 0 |
| CGATCATCATGGACCGGTTTTCCCGGTAATCCGTATTTGAC (site CGATCATCTGT) | 1.49 |
| CGATCATCATGGACCGGTTTTCCCGGTAATCCGTATTTGCA (site CGATCATCTAG) | 0 |
